How the values were obtained:
[1] = system: T. reesei Rut-C30; assay: Protein (cellulase) induction in T. reesei Rut-C30 shake-flask culture, CMC endo-glucanase activity assay; type: cell-based, Trichoderma reesei; details: for Cellulase activity at day 3 / Cellulase activity at day 3 (specific induction power, U/mg inducer): 2% glucose as carbon source
From the text: To prepare for protein induction studies using Trichoderma, a citrate minimal media was first prepared. The media composition, as modified from England et al. (U.S. Pat. […] The final pH was adjusted to 5.50 using NaOH. […] It was obtained from ATCC (56765) and developed as a catabolic de-repressed strain from classic mutagenesis of parent strain NG14 and the wild type […] al., BMC Genomics, 9:327, (2008)). To propagate Trichoderma, the freeze-dried stock from ATCC was first dissolved in sterile deionized water and then transferred onto a PDA (potato dextrose agar) plate (Teknova […]) using a sterile loop. The PDA plate was maintained at room temperature under white fluorescent light and after approximately 7 days, green Trichoderma spores could be seen. In addition, 60% (w/v) glucose stock was prepared and used both as control and as the carbon source for Trichoderma growth. […] Bacteriol., 73:269-278, (1957)).

[2] = system: Pullularia pullulans; details: cited from earlier work
[3] = system: cellulase gene promoter in Trichoderma reesei; details: cited from earlier work
[4] = system: Penicillium purpurogenum; details: cited from earlier work
[5] = system: Aspergillus niger (NRRL 330); assay: Protein (amylase) induction in Aspergillus niger culture, amylase activity assay; type: cell-based; details: inducer 0.05 g/L; 1% sorbitol as carbon source; 24 hours after inducer addition
Protocol: The procedure of preparing maltose acetate chemically and subsequent sample recovery follows the same procedure described in Example 4. […] Aspergillus niger (NRRL 330), obtained from ARS culture collection, was maintained on a PDA plate and allowed to sporulate for a week at room temperature. For inoculation, a 2 cm by 2 cm area agar plug was first removed and suspended in 5 mL sterile water. […] After additional 24 hours, the cultures were assayed for amylase activity following similar procedures to those detailed by Barton et al. (J.

CC(=O)OC[C@H]1O[C@@H](O[C@@H]2[C@@H](O)[C@H](O)[C@@H](COC(C)=O)O[C@@H]2O)[C@H](O)[C@@H](O)[C@@H]1O [Purified sophorose diacetate, 6′ and 6″ acetylated alpha-sophorose diester]
Cellulase activity at day 3 ([1]; inducer 0.03 g/L): 6.33 U/mL | Cellulase activity at day 3 (specific induction power, U/mg inducer) ([1]; inducer 0.03 g/L): 211.0 U/mg | specific induction power relative to sophorose ([1]; inducer 0.03 g/L, day 3): ~8 times | Cellulase activity at day 3 ([1]; inducer 0.12 g/L): 23.2 U/mL | Cellulase activity at day 3 (specific induction power, U/mg inducer) ([1]; inducer 0.12 g/L): 193.3 U/mg | specific induction power relative to unmodified sophorose ([1]; inducer 0.12 g/L, day 3): ~7 times

Sucrose monopalmitate
induced sucrase yield relative to sucrose [2]: 80 times

OC[C@H]1O[C@@H](O[C@H]2[C@H](O)[C@@H](O)C(O)O[C@@H]2CO)[C@H](O)[C@@H](O)[C@H]1O (stereo partly drawn) [lactose, D-lactose, reference compound]
Cellulase activity at day 3 ([1]; inducer 1.0 g/L): 0.64 U/mL | Cellulase activity at day 3 (specific induction power, U/mg inducer) ([1]; inducer 1.0 g/L): 0.64 U/mg

O=C[C@H](O)[C@@H](O)[C@H](O[C@@H]1O[C@H](CO)[C@@H](O)[C@H](O)[C@H]1O)[C@H](O)CO [cellobiose, reference compound]
Cellulase activity at day 3 ([1]; inducer 1.0 g/L): 0.34 U/mL | Cellulase activity at day 3 (specific induction power, U/mg inducer) ([1]; inducer 1.0 g/L): 0.34 U/mg

OC[C@H]1O[C@@H](O[C@H]2C(O)O[C@H](CO)[C@@H](O)[C@@H]2O)[C@H](O)[C@@H](O)[C@@H]1O (stereo partly shown) [sophorose, reference compound]
activity as cellulase inducer relative to cellobiose [3]: 2500 times | Cellulase activity at day 3 ([1]; inducer 0.13 g/L): 3.58 U/mL | Cellulase activity at day 3 (specific induction power, U/mg inducer) ([1]; inducer 0.13 g/L): 26.9 U/mg | Cellulase activity at day 3 ([1]; inducer 1.3 g/L): 15.0 U/mL | Cellulase activity at day 3 (specific induction power, U/mg inducer) ([1]; inducer 1.3 g/L): 11.2 U/mg

mono-O-acetyl cellobiose
effectiveness at inducing cellulase (in words) [4]: the most active inducer tested

6″ acetylated lactose monoester [Purified lactose monoacetate]
Cellulase activity at day 3 ([1]; inducer 0.09 g/L): 2.05 U/mL | Cellulase activity at day 3 (specific induction power, U/mg inducer) ([1]; inducer 0.09 g/L): 22.0 U/mg | specific induction activity relative to unmodified lactose ([1]; inducer 0.09 g/L, day 3): approximately 34 times | Cellulase activity at day 3 ([1]; inducer 0.51 g/L): 10.1 U/mL | Cellulase activity at day 3 (specific induction power, U/mg inducer) ([1]; inducer 0.51 g/L): 19.9 U/mg | specific induction activity relative to unmodified lactose ([1]; inducer 0.51 g/L, day 3): ~31 times | Cellulase activity at day 3 ([1]; inducer 1.05 g/L): 14.0 U/mL | Cellulase activity at day 3 (specific induction power, U/mg inducer) ([1]; inducer 1.05 g/L): 13.3 U/mg | specific induction activity relative to unmodified lactose ([1]; inducer 1.05 g/L, day 3): ~21 times

OC[C@H]1O[C@H](O[C@H]2[C@H](O)[C@@H](O)[C@H](O)O[C@@H]2CO)[C@H](O)[C@@H](O)[C@@H]1O [Maltose, maltose]
Amylase activity at day 3 [5]: 2.11 U/mL | Amylase activity at day 3 (specific induction power, U/mg inducer) [5]: 44.0 U/mg

— patent US10059973B2, “Carbohydrate esters as inducers for gene expression” (priority 2012, dated 2018)
